# Laboratory results taken from patent publication US8404677B2, “Kinase inhibitors” (Genosco, priority 2009, dated 2013).
# pIC50: −log10 of the molar value.
# Tests used:
# [1] = tested on: HCT-116; experiment: cells; assay type: cell-based; details: HCT-116 (Colon Cancer)
# [2] = tested on: SN12C; experiment: cells; assay type: cell-based; details: SN12C (Renal Cancer)
# [3] = tested on: MDA-MB-435; experiment: cells; assay type: cell-based; details: MDA-MB-435 (Melanoma)
# [4] = tested on: MCF7; experiment: cells; assay type: cell-based; details: MCF7 (Breast Cancer)
# [5] = tested on: HT29; experiment: cells; assay type: cell-based; details: HT29 (Colon Cancer)
# [6] = tested on: NCI-H322M; experiment: cells; assay type: cell-based; details: NCI-H322M (NSCLC)
# [7] = tested on: KM12; experiment: cells; assay type: cell-based; details: KM12 (Colon Cancer)
# [8] = tested on: SF-295; experiment: cells; assay type: cell-based; details: SF-295 (CNS Cancer)
# [9] = target: T1, human PIM1 (Homo sapiens, UniProt P11309); experiment: Inhibition of enzymatic kinase activity (LANCE Ulight); assay type: biochemical; details: at 1 μM concentration; read-out: PIM1 percentage inhibition
# T1 construct: Purified full-length human SYK, ZAP70, PIM1, PYK2; purchased Carna Biosciences
# Protocol: Inhibition of Enzymatic SYK, ZAP70, PYK2, FAK, PIM1, RET, FLT3, JAK2 and LRRK2 Kinase Activity
# Compounds of the invention were initially diluted to 10 mM in 100% DMSO (CALBIOCHEM™) for storage and made into kinase buffer solution to create a compound concentration ranging from 1 uM and 10 uM. Serial dilutions of compounds of the invention were dispensed into a 96-well plate (GREINER BIOSCIENCES™) at 6 μL each. Purified full-length human SYK, ZAP70, PIM1, PYK2 and truncated human FAK, RET, FLT3, JAK2, and LRRK2 (CARNA BIOSCIENCES™) were diluted in kinase buffer and added to the compound solutions and pre-incubated for 30 minutes at room temperature (1 hour for PYK2). […] The reaction mixture was incubated for 1 hour (2 hours for PYK2). Following the incubation, the stop solution made with EDTA, water, and Lance detection buffer ([…]™) was added (12 μL each) to stop phosphorylation. […] Substrate phosphorylation was a function of the 665 nm emission measured following the addition of the detection solution and 50 minutes of incubation.
# [10] = target: T2, CSF1R (Homo sapiens, UniProt P07333); experiment: In vitro kinase inhibition, Ambit Biosciences panel; assay type: binding; details: lower numbers indicate stronger activities
# T2 construct: purchased Ambit Biosciences
# Protocol: (§1) Up to 518 different kinases have been identified in humans. They act on small molecules such as lipids, carbohydrates, amino acids, and nucleotides. To determine the scope of inhibitory effects of a representative compound of Formula (I) on known kinases, Compound 6 was tested against 104 commercially available kinases (Ambit Biosciences™) in vitro. 104 kinases included ABL1(E255K)-phosphorylated, ABL1(T315I)-phosphorylated, ABL1-phosphorylated, ACVR1B, ADCK3, AKT1, AKT2, ALK, AURKA, AURKB, AXL, BMPR2, BRAF, BRAF(V600E), BTK, CDK11, CDK2, CDK3, CDK7, CDK9, CHEK1, CSF1R, CSNK1D, CSNK1G2, DCAMKL1, DYRK1B, EGFR, EGFR(L858R), EPHA2, ERBB2, ERBB4, ERK1, FAK, FGFR2, FGFR3, FLT1, FLT3, FLT4, GSK3B, IGF1R, IKK-α, IKK-β, INSR, JAK2(JH1domain-catalytic), JAK3(JH1domain-catalytic), JNK1, JNK2, JNK3, KIT, KIT(D816V), KIT(V559D,T670I), LKB1, LRRK2, LRRK2(G2019S), MAP3K4, MAPKAPK2, MARK3, MEK1, MEK2, MET, MKNK1, MKNK2, MLK1, MTOR, p38-alpha, p38-beta, PAK1, PAK2, PAK4, PCTK1, PDGFRA, PDGFRB, PDPK1, PIK3C2B, PIK3CA, PIK3CG, PIM1, PIM2, PIM3, PKAC-alpha, PLK1, PLK3, PLK4, PRKCE, PYK2, RAFT, RET, RIOK2, ROCK2, RSK2, SNARK, SRC, SRPK3, SYK, TAK1, TGFBR1, TIE2, TRKA, TSSK1B, TYK2(JH1domain-catalytic), ULK2, VEGFR2, YANK3 and ZAP70.
# (§2) Inhibition activity of Compound 6 was reported as percent control where lower numbers indicate stronger activities. […] Conventionally, the percent control of less than 35 is deemed to be significant inhibition of kinase activity as the numeric value 35 is frequently used as a threshold.
# [11] = target: T3, KIT (Homo sapiens, UniProt P10721); experiment: as above; assay type: binding; details: lower numbers indicate stronger activities
# T3 construct: purchased Ambit Biosciences
# Protocol: as §1, §2
# [12] = target: T4, BMPR2 (Homo sapiens, UniProt Q13873); experiment: as above; assay type: binding; details: lower numbers indicate stronger activities
# T4 construct: purchased Ambit Biosciences
# Protocol: as §1, §2
# [13] = target: T5, MLK1 (Homo sapiens, UniProt P80192); experiment: as above; assay type: binding; details: lower numbers indicate stronger activities
# T5 construct: purchased Ambit Biosciences
# Protocol: as §1, §2
# [14] = target: T6, JAK2 (Homo sapiens, UniProt O60674); experiment: as above; assay type: binding; details: lower numbers indicate stronger activities
# T6 construct: JAK2(JH1domain-catalytic), JAK3(JH1domain-catalytic); purchased Ambit Biosciences
# Protocol: as §1, §2
# [15] = target: T7, ALK (Homo sapiens, UniProt Q9UM73); experiment: as above; assay type: binding; details: lower numbers indicate stronger activities
# T7 construct: purchased Ambit Biosciences
# Protocol: as §1, §2
# [16] = target: T8, LRRK2 (Homo sapiens, UniProt Q5S007); experiment: as above; assay type: binding; details: lower numbers indicate stronger activities
# T8 construct: purchased Ambit Biosciences
# Protocol: as §1, §2
# [17] = Homo sapiens, read-out: LC50 (the source's name)
# T8 sequence (Q5S007 whole entry): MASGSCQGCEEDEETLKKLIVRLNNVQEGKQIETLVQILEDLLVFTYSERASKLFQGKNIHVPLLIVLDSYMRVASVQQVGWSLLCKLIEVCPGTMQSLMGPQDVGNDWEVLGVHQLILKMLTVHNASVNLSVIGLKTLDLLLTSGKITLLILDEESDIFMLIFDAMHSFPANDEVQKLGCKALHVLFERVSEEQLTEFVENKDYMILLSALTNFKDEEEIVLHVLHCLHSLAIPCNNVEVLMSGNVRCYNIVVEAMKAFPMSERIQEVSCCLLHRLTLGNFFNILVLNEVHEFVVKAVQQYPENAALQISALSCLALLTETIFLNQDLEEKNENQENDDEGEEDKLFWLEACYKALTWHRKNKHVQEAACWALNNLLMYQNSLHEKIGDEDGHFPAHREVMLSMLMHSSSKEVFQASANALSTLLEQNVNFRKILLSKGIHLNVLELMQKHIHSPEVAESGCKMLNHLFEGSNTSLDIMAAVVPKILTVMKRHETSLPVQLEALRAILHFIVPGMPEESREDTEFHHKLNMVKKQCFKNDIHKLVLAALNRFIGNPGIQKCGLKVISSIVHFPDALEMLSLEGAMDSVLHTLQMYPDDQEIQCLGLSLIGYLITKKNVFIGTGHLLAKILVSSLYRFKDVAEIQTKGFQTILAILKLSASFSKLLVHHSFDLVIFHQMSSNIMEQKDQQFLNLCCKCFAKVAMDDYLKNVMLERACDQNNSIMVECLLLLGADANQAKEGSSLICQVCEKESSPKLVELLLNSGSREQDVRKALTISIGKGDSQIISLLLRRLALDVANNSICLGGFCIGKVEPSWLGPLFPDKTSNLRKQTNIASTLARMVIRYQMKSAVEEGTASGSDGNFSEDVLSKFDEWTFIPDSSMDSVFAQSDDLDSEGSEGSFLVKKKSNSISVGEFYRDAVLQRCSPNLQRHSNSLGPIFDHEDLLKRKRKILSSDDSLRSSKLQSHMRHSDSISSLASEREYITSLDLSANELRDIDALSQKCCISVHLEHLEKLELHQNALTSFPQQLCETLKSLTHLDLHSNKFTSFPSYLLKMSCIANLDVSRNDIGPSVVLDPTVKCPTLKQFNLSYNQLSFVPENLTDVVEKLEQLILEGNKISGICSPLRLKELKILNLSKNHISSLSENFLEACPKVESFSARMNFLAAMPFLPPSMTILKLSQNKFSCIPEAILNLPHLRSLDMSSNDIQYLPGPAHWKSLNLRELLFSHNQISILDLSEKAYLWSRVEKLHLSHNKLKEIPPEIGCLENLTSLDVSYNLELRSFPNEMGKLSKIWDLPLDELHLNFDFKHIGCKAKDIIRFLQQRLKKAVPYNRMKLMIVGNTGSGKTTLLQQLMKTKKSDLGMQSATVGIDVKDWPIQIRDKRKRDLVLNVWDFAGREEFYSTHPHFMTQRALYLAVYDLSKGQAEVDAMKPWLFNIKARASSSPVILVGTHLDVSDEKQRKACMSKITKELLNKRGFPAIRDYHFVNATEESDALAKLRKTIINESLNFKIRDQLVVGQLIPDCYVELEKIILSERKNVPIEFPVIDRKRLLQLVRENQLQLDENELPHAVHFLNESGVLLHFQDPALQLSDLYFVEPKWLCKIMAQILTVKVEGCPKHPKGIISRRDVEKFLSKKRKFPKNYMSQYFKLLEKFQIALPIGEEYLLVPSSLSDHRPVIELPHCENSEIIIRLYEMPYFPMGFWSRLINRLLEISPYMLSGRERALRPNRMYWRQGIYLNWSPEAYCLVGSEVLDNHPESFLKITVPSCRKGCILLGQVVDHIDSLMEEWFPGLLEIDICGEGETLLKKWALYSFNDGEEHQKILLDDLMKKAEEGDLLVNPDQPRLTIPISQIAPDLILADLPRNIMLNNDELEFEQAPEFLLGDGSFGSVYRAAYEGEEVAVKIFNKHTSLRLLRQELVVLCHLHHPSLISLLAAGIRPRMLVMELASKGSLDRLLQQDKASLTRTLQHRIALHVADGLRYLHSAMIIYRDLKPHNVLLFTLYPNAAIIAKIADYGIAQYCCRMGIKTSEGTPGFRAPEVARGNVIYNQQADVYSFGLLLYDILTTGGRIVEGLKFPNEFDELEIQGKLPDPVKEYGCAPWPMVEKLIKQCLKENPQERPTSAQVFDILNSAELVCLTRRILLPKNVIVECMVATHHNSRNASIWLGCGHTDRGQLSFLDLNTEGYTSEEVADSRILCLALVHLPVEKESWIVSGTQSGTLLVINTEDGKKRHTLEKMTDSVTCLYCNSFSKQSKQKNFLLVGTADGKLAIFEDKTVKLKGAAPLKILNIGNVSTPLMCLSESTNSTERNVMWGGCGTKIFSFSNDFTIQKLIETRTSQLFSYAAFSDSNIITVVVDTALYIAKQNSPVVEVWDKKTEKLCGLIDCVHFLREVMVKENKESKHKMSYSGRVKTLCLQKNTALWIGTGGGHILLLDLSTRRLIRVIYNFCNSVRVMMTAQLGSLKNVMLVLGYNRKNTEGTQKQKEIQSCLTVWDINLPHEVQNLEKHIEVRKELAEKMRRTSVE
# T6 sequence (O60674 849-1124 limits assumed): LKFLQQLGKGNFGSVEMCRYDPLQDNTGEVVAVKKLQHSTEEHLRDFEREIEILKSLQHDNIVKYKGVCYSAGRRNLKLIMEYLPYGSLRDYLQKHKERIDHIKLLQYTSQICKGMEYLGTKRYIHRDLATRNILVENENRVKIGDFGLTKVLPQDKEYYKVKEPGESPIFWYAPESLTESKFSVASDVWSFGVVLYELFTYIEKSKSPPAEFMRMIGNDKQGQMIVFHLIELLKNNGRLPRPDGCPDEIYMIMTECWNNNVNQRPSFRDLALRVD
# T1 sequence (P11309 whole entry): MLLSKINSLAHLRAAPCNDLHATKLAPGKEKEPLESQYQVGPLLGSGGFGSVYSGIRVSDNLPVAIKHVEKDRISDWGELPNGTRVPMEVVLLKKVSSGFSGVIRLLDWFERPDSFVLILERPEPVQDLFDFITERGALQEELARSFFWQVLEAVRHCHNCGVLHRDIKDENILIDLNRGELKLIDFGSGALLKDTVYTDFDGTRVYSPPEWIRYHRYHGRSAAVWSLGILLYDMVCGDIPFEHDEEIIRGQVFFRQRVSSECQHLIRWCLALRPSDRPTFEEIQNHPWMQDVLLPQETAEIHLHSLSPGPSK
# T2 sequence (P07333 20-972): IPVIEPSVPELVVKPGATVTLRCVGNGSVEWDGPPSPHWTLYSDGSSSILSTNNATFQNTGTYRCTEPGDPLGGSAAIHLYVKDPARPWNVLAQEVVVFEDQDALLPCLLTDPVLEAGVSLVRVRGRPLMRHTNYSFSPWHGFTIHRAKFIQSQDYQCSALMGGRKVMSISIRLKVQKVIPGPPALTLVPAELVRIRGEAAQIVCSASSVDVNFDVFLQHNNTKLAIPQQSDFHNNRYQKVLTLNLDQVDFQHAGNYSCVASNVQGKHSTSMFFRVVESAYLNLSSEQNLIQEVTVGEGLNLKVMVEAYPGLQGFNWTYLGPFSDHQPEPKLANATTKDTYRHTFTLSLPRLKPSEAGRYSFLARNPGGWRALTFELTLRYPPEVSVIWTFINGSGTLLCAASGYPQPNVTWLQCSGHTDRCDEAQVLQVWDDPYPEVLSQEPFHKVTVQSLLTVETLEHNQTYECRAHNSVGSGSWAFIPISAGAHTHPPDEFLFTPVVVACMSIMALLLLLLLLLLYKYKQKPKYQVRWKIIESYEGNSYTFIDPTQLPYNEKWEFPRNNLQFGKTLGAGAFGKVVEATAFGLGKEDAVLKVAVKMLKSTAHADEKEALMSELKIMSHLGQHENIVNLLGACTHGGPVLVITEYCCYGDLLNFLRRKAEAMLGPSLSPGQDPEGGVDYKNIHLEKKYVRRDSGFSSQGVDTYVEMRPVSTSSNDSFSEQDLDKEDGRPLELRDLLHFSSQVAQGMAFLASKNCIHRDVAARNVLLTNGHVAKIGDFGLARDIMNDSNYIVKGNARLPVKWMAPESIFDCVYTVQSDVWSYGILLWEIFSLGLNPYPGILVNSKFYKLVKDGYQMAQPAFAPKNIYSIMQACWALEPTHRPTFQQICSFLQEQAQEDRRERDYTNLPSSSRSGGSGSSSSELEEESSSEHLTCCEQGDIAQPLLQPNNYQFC
# T4 sequence (Q13873 27-1038): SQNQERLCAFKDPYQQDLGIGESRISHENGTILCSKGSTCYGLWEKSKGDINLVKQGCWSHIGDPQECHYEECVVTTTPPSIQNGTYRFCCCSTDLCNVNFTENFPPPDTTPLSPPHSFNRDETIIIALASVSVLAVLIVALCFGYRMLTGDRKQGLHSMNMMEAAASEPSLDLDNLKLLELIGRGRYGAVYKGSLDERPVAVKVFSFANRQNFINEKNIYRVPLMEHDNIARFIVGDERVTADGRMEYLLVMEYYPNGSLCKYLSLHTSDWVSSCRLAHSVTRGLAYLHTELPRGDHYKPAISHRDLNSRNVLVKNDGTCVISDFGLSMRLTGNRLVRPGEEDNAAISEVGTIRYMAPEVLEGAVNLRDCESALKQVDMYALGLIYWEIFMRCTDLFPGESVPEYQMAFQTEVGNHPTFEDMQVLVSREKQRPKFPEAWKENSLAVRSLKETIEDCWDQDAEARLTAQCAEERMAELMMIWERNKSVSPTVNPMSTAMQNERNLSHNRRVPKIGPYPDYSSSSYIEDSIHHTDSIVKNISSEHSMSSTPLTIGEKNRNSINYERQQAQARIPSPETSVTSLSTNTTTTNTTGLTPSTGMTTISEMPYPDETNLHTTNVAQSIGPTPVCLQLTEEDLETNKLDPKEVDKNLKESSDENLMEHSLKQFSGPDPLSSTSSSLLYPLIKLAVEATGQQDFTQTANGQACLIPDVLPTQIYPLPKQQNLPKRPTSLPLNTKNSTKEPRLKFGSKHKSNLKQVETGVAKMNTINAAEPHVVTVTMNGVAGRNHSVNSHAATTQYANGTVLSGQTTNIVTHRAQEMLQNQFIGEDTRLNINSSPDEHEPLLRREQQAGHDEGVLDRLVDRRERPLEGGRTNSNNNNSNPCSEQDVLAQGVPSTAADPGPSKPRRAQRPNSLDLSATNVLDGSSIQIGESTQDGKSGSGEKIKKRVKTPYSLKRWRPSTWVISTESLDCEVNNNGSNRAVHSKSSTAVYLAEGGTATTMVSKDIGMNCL
structure (smiles),measurement,setting,value
"O=c1[nH]ccc2nc(N3CCC(O)CC3)nc(Nc3cccc(C(F)(F)F)c3)c12 [Compound 6, 2-(4-hydroxypiperidin-1-yl)-4-(3-(trifluoromethyl)phenylamino)pyrido[4,3-d]pyrimidine-5(6H)-one]",TGI,[1],12.3 µM
same,GI50,[1]; Homo sapiens,0.871 µM
same,pIC50,[1]; Homo sapiens,5.88
same,CC50,[1]; [17],75.9 µM
same,GI50,[2]; Homo sapiens,4.07 µM
same,pIC50,[2]; Homo sapiens,4.89
same,CC50,[2]; [17],100 µM
same,TGI,[2],100 µM
same,GI50,[3]; Homo sapiens,1.29 µM
same,pIC50,[3]; Homo sapiens,5.59
same,CC50,[3]; [17],9.77 µM
same,TGI,[3],3.55 µM
same,GI50,[4]; Homo sapiens,2.82 µM
same,pIC50,[4]; Homo sapiens,5.39
same,CC50,[4]; [17],100 µM
same,TGI,[4],12.6 µM
same,TGI,[5],95.5 µM
same,GI50,"[5]; Homo sapiens, HT-29",3.89 µM
same,pIC50,"[5]; Homo sapiens, HT-29",5.15
same,CC50,"[5]; Homo sapiens, HT-29, read-out: LC50 (the source's name)",100 µM
same,GI50,[6]; Homo sapiens,2.29 µM
same,pIC50,[6]; Homo sapiens,4.67
same,CC50,[6]; [17],100 µM
same,TGI,[6],28.8 µM
same,GI50,[7]; Homo sapiens,1.45 µM
same,pIC50,[7]; Homo sapiens,5.57
same,CC50,[7]; [17],24 µM
same,TGI,[7],5.37 µM
same,GI50,[8]; Homo sapiens,2.95 µM
same,pIC50,[8]; Homo sapiens,5.17
same,CC50,[8]; [17],56.2 µM
same,TGI,[8],7.76 µM
same,inhibition at 1 µM,[9],32%
same,% inhibition (reported as percent control),[10],5.2%
same,% inhibition (reported as percent control),[11],11%
same,% inhibition (reported as percent control),[12],0%
same,% inhibition (reported as percent control),[13],2.8%
same,% inhibition (reported as percent control),[14],3%
same,Percent of control (lower = stronger binding),[15],29%
same,% inhibition (reported as percent control),[16],2.2%
